{"source": "patent US20020198135A1", "about": "“Compositions for release of radiosensitizers, and methods of making and using the same” (priority 2000, published 2002)", "key": {"U251 xenograft": {"tested_on": "U251 xenograft", "assay": "U251 xenograft model, IUdR polymer paste with continuous ULDR and fractionated HDR", "type": "in vivo, mice", "conditions": "IUdR via 16.7% P(trans-CHDM/HOP) paste, ULDR 0.03 Gy/hr for 72 hr, FIG. 25", "procedure": "To test the effect of protracted exposure sensitization, a 137-Cs source was mounted a fixed distance above the cages of animals bearing xenografts for whole body continuous ULDR (as defined below). […] For purposes of this experiment, ULDR=0.03 Gy/hr for 72 hr started 24 hours after xenograft transplantation, and HDR=2 Gy twice a day for 4 days, started immediately after ULDR, which is 4 days after implantation."}, "[1]": {"tested_on": "human cancer cell line JHU 012", "assay": "JHU 012 human cancer cell line tumor in the anterior floor of the mouth of nude mice, intratumoral injection", "type": "in vivo, immunocompromised (nude) mice", "conditions": "intratumoral injection ten days after cell injection, same radiation treatment (as appropriate); measured at approximately twenty days after injection", "procedure": "In another in vivo experiment, 1×10^7 cells from the human cancer cell line JHU 012 were injected into the anterior floor of the mouth of immunocompromised (nude) mice. Ten days following injection, animals were anesthetized, tumors measured, intumoral injections of the same compositions identified above were completed followed by the same radiation treatment (as appropriate). At approximately twenty days after injection, animals sacrificed and tumors measured. The following approximate tumor sizes (mm^3) were observed: no treatment, 750; radiation alone, 300; empty microspheres, 500; 47% IUdR microspheres (1.175 mg IUdR in injection volume of 50 ul), 425; empty rods, 250; 33% IUdR rods, 350; and direct intrumoral injection of IUdR (0.065 mg to 0.12 mg in injection volume of 50 ul), 100."}}}
{"smiles": "O=c1[nH]c(=O)n([C@H]2C[C@H](O)[C@@H](CO)O2)cc1I", "note": "[IUdR, 5-iododeoxyuridine]", "values": [{"measurement": "xenograft growth delay, combination of IUdR and ULDR compared with ULDR plus HDR", "setting": "U251 xenograft", "result": "more potent than the combination of IUdR and ULDR"}, {"measurement": "xenograft growth, combination of IUdR, ULDR and HDR", "setting": "U251 xenograft; HDR 2 Gy twice a day for 4 days", "result": "tumor regression"}, {"measurement": "approximate tumor size", "setting": "[1]", "result": "~100", "unit": "mm^3"}]}
